Data on one compound can be found in patent US11786494B2, “Methods of modulation of branched chain acids and uses thereof” (Baylor College of Medicine, priority 2009, dated 2023).

SMILES strings stand for the structures.

Data set [1] addresses T1, BCKDC (Homo sapiens, UniProt P12694+P21953).
T1 sequence (P12694 46-445): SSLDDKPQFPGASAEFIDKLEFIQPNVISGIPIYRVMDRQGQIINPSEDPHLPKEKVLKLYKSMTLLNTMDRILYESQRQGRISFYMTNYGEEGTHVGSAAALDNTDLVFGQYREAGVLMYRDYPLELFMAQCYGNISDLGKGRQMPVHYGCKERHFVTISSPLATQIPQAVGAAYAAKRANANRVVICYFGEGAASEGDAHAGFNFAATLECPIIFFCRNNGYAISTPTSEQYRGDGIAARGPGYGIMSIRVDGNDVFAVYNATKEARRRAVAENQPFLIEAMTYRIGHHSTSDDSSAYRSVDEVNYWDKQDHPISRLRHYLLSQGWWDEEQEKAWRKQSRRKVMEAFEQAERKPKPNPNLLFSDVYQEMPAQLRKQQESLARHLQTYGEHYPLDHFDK
T1 sequence (P21953 51-392): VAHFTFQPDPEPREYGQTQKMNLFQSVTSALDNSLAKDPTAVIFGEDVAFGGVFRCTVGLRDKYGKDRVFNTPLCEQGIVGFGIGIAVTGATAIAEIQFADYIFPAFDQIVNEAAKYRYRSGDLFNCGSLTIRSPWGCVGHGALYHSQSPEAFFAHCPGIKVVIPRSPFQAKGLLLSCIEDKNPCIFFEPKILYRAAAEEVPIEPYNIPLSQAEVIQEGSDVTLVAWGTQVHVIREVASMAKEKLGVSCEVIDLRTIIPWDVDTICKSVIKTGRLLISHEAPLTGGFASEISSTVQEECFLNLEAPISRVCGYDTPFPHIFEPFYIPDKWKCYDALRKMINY
Description: BCKD enzyme activity in skin fibroblasts (14C-leucine decarboxylation). In kind it is cell-based. More on the design: BCKDC enzyme activity was measured on skin fibroblasts obtained from all five patients; endogenous in cells; host or cells: cultured human skin fibroblasts (one control, MSUD patients 3 and 5). An excerpt: Five patients with intermediate and/or late onset forms of MSUD were recruited for a trial with phenylbutyrate. Patients with the intermediate form have some degree of residual enzyme activity, and, therefore, were hypothesized to have higher likelihood to respond to the treatment as compared to patients with the classic form who have no residual activity. Diagnosis of the intermediate form was made based on clinical onset of clinical symptoms beyond the neonatal period. The diagnosis of MSUD was confirmed biochemically based on the elevated leucine and on the presence of alloisoleucine in plasma. Enzyme assay and DNA analysis for BCKDC activity and genotype, respectively, on these subjects were performed and summarized (Table 3). BCKDC enzyme activity was measured on skin fibroblasts obtained from all five patients using radioactive method previously described. In this method, cultured fibroblasts cells are incubated with α-1-^14C-leucine for 4 hours in the presence of 1 mM α-chloroisocaproate in the medium to stimulate the BCKDC activity. At the end of the incubation, the amount of ^14CO2 released from leucine decarboxylation is captured onto damped filter paper. Decarboxylation activity of BCKDC is expressed as pmol of CO2 released/mg protein/hour and percentage of normal activity.
To confirm that the effect of the phenylbutyrate was specific for BCKD activity, the enzyme activity was measured in control and MSUD patient fibroblasts before and after incubation with phenylbutyrate at the concentration of 2 mM from two independent patients (one clinical responder and one clinical nonresponder) and in one control. […] A similar increase (1.7 fold) over baseline activity was also observed in one MSUD cell line (patient 5), consistent with the biochemical response for BCAA and α-ketoacids in that patient.

The conditions of data set [2]: cited from earlier work.
For data set [3], the system named is BCKDC. Description: Leucine oxidation in lymphoblast cell lines without CIC. In kind it is cell-based, human. The method, then:
FIGS. 7A-7C. FIGS. 7A and 7B show leucine oxidation in lymphoblast cells from control subjects (C-660, C-661) and MSUD patients (P-1, -2, -3, -4, -5) untreated or treated with 1 mM phenylbutyrate for 48 h. Leucine oxidation was measured by using radioactive assay as described in Materials and Methods and is expressed in pmol CO2 released/min/mg protein. Values are means±SD (n=3), * p≥0.05, **p≥0.01. […] Images are representative of three independent experiments.
Following treatment with phenylbutyrate, enzyme activity in control and patients' lymphoblast cell lines was measured. Transformed lymphoblast cell lines were available from all 5 MSUD patients and from 2 controls to measure BCKDC activity. Lymphoblasts were incubated for 48 h with and without 1 mM phenylbutyrate (a lower concentration of phenylbutyrate was used because of higher sensitivity of these cells as compared to fibroblasts to the drug) then BCKDC activity was measured without α-chloroisocaproate addition (CIC). […] Thus, in cells from the two patients with E2 mutations (Table 7), activation of enzyme activity results from inhibition of phosphorylation state of E1α, in specific embodiments of the invention.

For the compound `O=C([O-])CCCc1ccccc1.[Na+]` [phenylbutyrate, sodium 4-phenylbutyrate], the “increase over baseline enzyme activity” value at BCKDC [1] (MSUD fibroblast cell line patient 5, 2 mM) came out at 1.7 fold. The BCKD enzyme activity is 176.08% at BCKDC [1] (Normal control fibroblasts, + phenylbutyrate 2 mM (untreated normal control = 100%)) and 7.62% on BCKDC [1] (Patient 5 (donor beta) fibroblasts, clinical responder, + phenylbutyrate 2 mM). Also, the “increase in enzyme activity after incubation” value at BCKDC [1] (control fibroblast cell line, 2 mM) was 1.7 fold. The “time at which measurable plasma levels are detected” value in data set [2] (after oral administration of phenylbutyrate) was 15 min. Moreover, the “Peak concentrations of phenylbutyrate” value in data set [2] (oral administration) is recorded as “approximately 1 mmol/1”. Moreover, the “time at which peak concentrations are reached” value in data set [2] (oral administration) is 1 h. In data set [2] (oral phenylbutyrate, estimated), the elimination half-life was 48 min. Besides, in data set [2] (within 24 h, most subjects), the “fraction of the drug excreted by the kidneys as the conjugated product PAG” value is recorded as 80-100%. Besides, the leucine oxidation result was “significantly enhanced” in the data set on BCKDC [3] (MSUD patient lymphoblasts with the exception of patient 5, 1 mM for 48 h) and “significantly enhanced” with BCKDC [3] (control lymphoblasts (C-660, C-661), 1 mM for 48 h). In addition, in the data set on BCKDC [3] (patient 5 lymphoblasts, 1 mM for 48 h), the leucine oxidation increase entry was “not significant”.
